target: T1, IRE1α (Homo sapiens (Human), UniProt O75460); test: In vitro FRET assay; type: biochemical; conditions: XBP1 RNA probe
Procedure: In vitro FRET assay was performed to evaluate the ability of select compounds to inhibit IRE1, the results of which are summarized in Table 3. To perform the in vitro FRET assay, 1× complete assay buffer (CAB; […], 50 mM sodium citrate pH 7.15, 1 mM magnesium acetate, 0.02% tween 20) was used to dilute SignalChem IRE1α protein to a final concentration of 2 nM. Selected compounds were serially diluted with DMSO in a non-binding black 384-well plate for a total of 15 ul in each well. 2 ul of the serially diluted compound or DMSO control were then added to new wells containing 98 ul of 1×CAB, for a total volume of 100 ul, 10 ul of which were then transferred to wells of a new plate. 5 ul of the diluted IRE1α was then added to each well. 5 ul of a […] XBP1 RNA probe was then added to each well. Fluorescence was then read over 30 minutes in kinetic mode (485/515 nm).
Two RNA probes were used, XBP1 wildtype (SEQ ID NO: 2) which is able to be spliced by active IRE1α or XBP1 mutant (SEQ ID NO: 3) which is unable to be spliced. Each probe contained a 5′ 6-FAM modification and a 3′ IOWA Black FQ modification.
A second FRET assay was performed to assess ATP-mediated inhibition. In this case, compounds and IRE1α were prepared and combined as discussed above, with the addition of ATP up to 1 mM final concentration. This mixture was incubated at room temperature for 60 minutes and then 5 ul of 400 nM XBP1 wildtype or mutant RNA probe was added. Plates were then read over 30 minutes in kinetic mode (485/515 nm) and rate of fluorescence increase calculated for different compound dilutions to determine IC50 (Table 3).

T1 sequence (O75460 19-977): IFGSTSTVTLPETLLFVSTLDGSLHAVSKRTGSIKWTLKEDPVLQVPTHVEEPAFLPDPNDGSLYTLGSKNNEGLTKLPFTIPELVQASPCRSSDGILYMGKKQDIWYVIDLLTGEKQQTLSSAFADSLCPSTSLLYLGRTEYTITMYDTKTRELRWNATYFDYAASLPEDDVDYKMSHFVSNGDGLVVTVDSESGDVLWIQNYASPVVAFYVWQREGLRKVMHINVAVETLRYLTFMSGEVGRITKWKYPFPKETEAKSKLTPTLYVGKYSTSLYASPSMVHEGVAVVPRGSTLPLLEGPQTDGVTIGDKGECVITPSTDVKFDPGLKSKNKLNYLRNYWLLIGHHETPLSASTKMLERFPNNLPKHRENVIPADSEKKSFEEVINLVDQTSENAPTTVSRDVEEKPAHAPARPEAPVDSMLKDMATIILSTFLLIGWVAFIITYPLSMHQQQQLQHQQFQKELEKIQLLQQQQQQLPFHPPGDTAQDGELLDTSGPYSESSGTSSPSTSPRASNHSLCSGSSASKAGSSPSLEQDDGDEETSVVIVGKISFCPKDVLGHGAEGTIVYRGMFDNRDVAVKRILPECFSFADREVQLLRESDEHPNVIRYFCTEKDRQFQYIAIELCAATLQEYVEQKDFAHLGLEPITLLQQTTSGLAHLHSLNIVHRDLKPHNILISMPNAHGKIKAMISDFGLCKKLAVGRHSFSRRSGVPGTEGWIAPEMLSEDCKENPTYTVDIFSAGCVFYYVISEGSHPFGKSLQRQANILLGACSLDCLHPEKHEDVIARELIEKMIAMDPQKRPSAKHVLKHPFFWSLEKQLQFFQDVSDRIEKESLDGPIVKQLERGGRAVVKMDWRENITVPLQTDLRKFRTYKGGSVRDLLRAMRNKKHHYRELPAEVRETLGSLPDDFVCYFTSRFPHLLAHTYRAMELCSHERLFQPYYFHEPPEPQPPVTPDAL

`Cc1cc(NS(=O)(=O)c2ccccc2Cl)ccc1CCc1cnc(NC2CCC(N)CC2)nc1` (centres unmarked) [Compound 6, N-(4-(2-(2-(((1r,4r)-4-aminocyclohexyl)amino)pyrimidin-5-yl)ethyl)-3-methylphenyl)-2-chlorobenzenesulfonamide] was tested. Which IC50 did it give?
Its IC50 is ≤ 1 nM.

With `N[C@H]1CC[C@H](Nc2ncc(CCc3ccc(NS(=O)(=O)c4ccccc4Cl)nn3)cn2)CC1` [Compound 7, N-(6-(2-(2-(((1r,4r)-4-aminocyclohexyl)amino)pyrimidin-5-yl)ethyl)pyridazin-3-yl)-2-chlorobenzenesulfonamide] as the molecule, how does the IC50 read?
Its IC50 is 1 to 5 nM.

For `COc1nc(NS(=O)(=O)c2ccccc2Cl)ccc1/C=C/c1cnc(NC2CCC(O)CC2)nc1` (centres unmarked) [Compound 11, 2-chloro-N-(5-((E)-2-(2-(((1r,4r)-4-hydroxycyclohexyl)amino)pyrimidin-5-yl)vinyl)-6-methoxypyridin-2-yl)benzenesulfonamide], which IC50 is on record?
The IC50 was 1 to 5 nM.

With `COc1nc(NS(=O)(=O)c2ccccc2Cl)ccc1CCc1cnc(NC2CCC(O)CC2)nc1` (centres unmarked) [Compound 12, 2-chloro-N-(5-(2-(2-(((1r,4r)-4-hydroxycyclohexyl)amino)pyrimidin-5-yl)ethyl)-6-methoxypyridin-2-yl)benzenesulfonamide] as the molecule, how does the IC50 read?
Its IC50 is 5 to 50 nM.

With `COc1nc(NS(=O)(=O)c2ccccc2Cl)ccc1CCc1ccc(NC2CCC(N)CC2)nc1` (centres unmarked) [Compound 13, N-(5-(2-(6-(((1r,4r)-4-aminocyclohexyl)amino)pyridin-3-yl)ethyl)-6-methoxypyridin-2-yl)-2-chlorobenzenesulfonamide] as the molecule, how does the IC50 read?
Its IC50 is 1 to 5 nM.

With `COc1cc(NS(=O)(=O)c2ccccc2Cl)cnc1CCc1cnc(NC2CCC(N)CC2)nc1` (centres unmarked) [Compound 18, N-(6-(2-(2-(((1r,4r)-4-aminocyclohexyl)amino)pyrimidin-5-yl)ethyl)-5-methoxypyridin-3-yl)-2-chlorobenzenesulfonamide] as the molecule, how does the IC50 read?
The IC50 was ≤ 1 nM.

target: T1, IRE1α; test: In vitro luciferase assay (IRE1α Endoribonuclease Nanoluciferase Assay); type: cell-based; conditions: 293T cells, XBP1 luciferase reporter
Procedure: Compounds disclosed herein were assessed for disruption of IRE-1 signaling using a IRE1α Endoribonuclease Nanoluciferase Assay. Briefly, 2.5×10^6 293T cells were seeded in a 10 cm^2 tissue culture plate. About 24 hours later, the cells were transfected with Effectene. In a 15 mL Tube, the following was added: 2 μg XBP1 luciferase reporter plasmid (PGK-Luc2-P2A-XBP1u-Nanoluciferase-PEST); 300 μl EC buffer; and 16 μl Enhancer, followed by incubation at room temp for 5 minutes. Next, 60 μl Effectene (Qiagen 301427) was added, followed by incubation at room temperature for 10 minutes. 2.6 mL cDMEM media was added. Old media was aspirated from the cells, followed by addition of 7 mL fresh media. Full transfection mixture was added dropwise to cells. Cells were incubated for 6 hours, followed by trypsinization, centrifugation and resuspension in 11 mL media. 100 uL of cells were plated per a well in a 96 well plate. A day later, ER stressors of choice+/−inhibitors were added. To harvest, media was aspirated from cells completely, then 50 uL 1× passive lysis buffer (Promega: E1941) was added per well and put on shaker (300 rpm) for 30 minutes at room temperature. Cells were centrifuged, and 15 uL sample per well was added to a new, opaque white 384 well plate (Corning 3570). 15 uL OneGlo (nanoluciferase kit, Promega N1630) was added. Plates were spun down, placed on shaker (300 rpm) for 10 minutes. Plates were read on luminometer, 1000 ms integration time per well. 15 uL Stop and Glo (nanoluciferase kit) was added. Plates were spun down, placed on shaker (300 rpm) for 10 minutes. Plates were read on luminometer, 1000 ms second integration time per well. Recordings are provided below in Table 4

With `COc1nc(NS(=O)(=O)c2cccc(F)c2Cl)ccc1/C=C/c1cnc(NC2CCC(N(C)C)CC2)nc1` (single isomer, unassigned) [Compound 53, 2-chloro-N-(5-((E)-2-(2-(((1r,4r)-4-(dimethylamino)cyclohexyl)amino)pyrimidin-5-yl)vinyl)-6-methoxypyridin-2-yl)-3-fluorobenzenesulfonamide] as the molecule, how does the EC50 read?
Its EC50 is 50 to 100 nM.

`NC1CCC(Nc2ncc(/C=C/c3ccc(NS(=O)(=O)c4ccccc4Cl)c(F)c3)cn2)CC1` (centres unmarked) [Compound 3, N-(4-((E)-2-(2-(((1r,4r)-4-aminocyclohexyl)amino)pyrimidin-5-yl)vinyl)-2-fluorophenyl)-2-chlorobenzenesulfonamide] was tested. Which EC50 did it give?
The EC50 was ≤ 5 nM.

Which EC50 does the source give for `CN(C)C1CCC(Nc2ncc(/C=C/c3ccc(NS(=O)(=O)c4ccccc4Cl)nn3)cn2)CC1` (centres unmarked) [Compound 52, 2-chloro-N-(6-((E)-2-(2-(((1r,4r)-4-(dimethylamino)cyclohexyl)amino)pyrimidin-5-yl)vinyl)pyridazin-3-yl)benzenesulfonamide] here?
The EC50 was 5 to 50 nM.

With `COc1nc(NS(=O)(=O)c2ccccc2Cl)c(F)cc1/C=C/c1cnc(NC2CCC(N)CC2)nc1` (centres unmarked) [Compound 54, N-(5-((E)-2-(2-(((1r,4r)-4-aminocyclohexyl)amino)pyrimidin-5-yl)vinyl)-3-fluoro-6-methoxypyridin-2-yl)-2-chlorobenzenesulfonamide] as the molecule, how does the EC50 read?
The EC50 was 50 to 100 nM.

How did the EC50 turn out when `COc1nc(NS(=O)(=O)c2cnccc2Cl)ccc1/C=C/c1cnc(NC2CCC(N(C)C)CC2)nc1` (centres unmarked) [Compound 56, 4-chloro-N-(5-((E)-2-(2-(((1r,4r)-4-(dimethylamino)cyclohexyl)amino)pyrimidin-5-yl)vinyl)-6-methoxypyridin-2-yl)pyridine-3-sulfonamide] was run?
Its EC50 is 50 to 100 nM.

`COc1nc(NS(=O)(=O)c2ccccc2Cl)ccc1/C=C/c1cnc(NC2CCC(N3CCOCC3)CC2)nc1` (centres unmarked) [Compound 57, 2-chloro-N-(6-methoxy-5-((E)-2-(2-(((1r,4r)-4-morpholinocyclohexyl)amino)pyrimidin-5-yl)vinyl)pyridin-2-yl)benzenesulfonamide] was tested. Which EC50 did it give?
The EC50 was ≤ 5 nM.

`Cc1nc(NS(=O)(=O)c2ccccc2Cl)c(F)cc1/C=C/c1cnc(NC2CCC(N)CC2)nc1` (centres unmarked) [Compound 58, N-(5-((E)-2-(2-(((1r,4r)-4-aminocyclohexyl)amino)pyrimidin-5-yl)vinyl)-3-fluoro-6-methylpyridin-2-yl)-2-chlorobenzenesulfonamide] was tested. Which EC50 did it give?
The EC50 was 50 to 100 nM.

`CNC1CCC(Nc2ncc(/C=C/c3cc(F)c(NS(=O)(=O)c4ccccc4Cl)nc3OC)cn2)CC1` (centres unmarked) [Compound 59, 2-chloro-N-(3-fluoro-6-methoxy-5-((E)-2-(2-(((1r,4r)-4-(methylamino)cyclohexyl)amino)pyrimidin-5-yl)vinyl)pyridin-2-yl)benzenesulfonamide] was tested. Which EC50 did it give?
The EC50 was 50 to 100 nM.

With `COc1nc(NS(=O)(=O)c2ccccc2Cl)ccc1/C=C/c1cnc(NC2CCC(N3CCCCC3)CC2)nc1` (centres unmarked) [Compound 60, 2-chloro-N-(6-methoxy-5-((E)-2-(2-(((1r,4r)-4-(piperidin-1-yl)cyclohexyl)amino)pyrimidin-5-yl)vinyl)pyridin-2-yl)benzenesulfonamide] as the molecule, how does the EC50 read?
The EC50 was ≤ 5 nM.

With `CN(C)C1CCC(Nc2ncc(/C=C/c3ccc(NS(=O)(=O)c4ccc(F)cc4Cl)nc3)cn2)CC1` (centres unmarked) [Compound 61, 2-chloro-N-(5-((E)-2-(2-(((1r,4r)-4-(dimethylamino)cyclohexyl)amino)pyrimidin-5-yl)vinyl)pyridin-2-yl)-4-fluorobenzenesulfonamide] as the molecule, how does the EC50 read?
The EC50 was ≤ 5 nM.

With `Cc1nc(NS(=O)(=O)c2cnccc2Cl)ccc1/C=C/c1cnc(NC2CCC(N(C)C)CC2)nc1` (centres unmarked) [Compound 62, 4-chloro-N-(5-((E)-2-(2-(((1r,4r)-4-(dimethylamino)cyclohexyl)amino)pyrimidin-5-yl)vinyl)-6-methylpyridin-2-yl)pyridine-3-sulfonamide] as the molecule, how does the EC50 read?
Its EC50 is 50 to 100 nM.

For `CN(C)C1CCC(Nc2ncc(/C=C/c3ccc(NS(=O)(=O)c4cccc(Cl)c4Cl)nc3)cn2)CC1` (centres unmarked) [Compound 63, 2,3-dichloro-N-(5-((E)-2-(2-(((1r,4r)-4-(dimethylamino)cyclohexyl)amino)pyrimidin-5-yl)vinyl)pyridin-2-yl)benzenesulfonamide], which EC50 is on record?
Its EC50 is ≤ 5 nM.

`COc1nc(NS(=O)(=O)c2ccccc2Cl)ccc1/C=C/c1cnc(NC2CCC(N3CCSCC3)CC2)nc1` (centres unmarked) [Compound 64, 2-chloro-N-(6-methoxy-5-((E)-2-(2-(((1r,4r)-4-thiomorpholinocyclohexyl)amino)pyrimidin-5-yl)vinyl)pyridin-2-yl)benzenesulfonamide] was tested. Which EC50 did it give?
The EC50 was ≤ 5 nM.

For `COc1cc(NS(=O)(=O)c2cnccc2Cl)ccc1/C=C/c1cnc(NC2CCC(N(C)C)CC2)nc1` (centres unmarked) [Compound 65, 4-chloro-N-(4-((E)-2-(2-(((1r,4r)-4-(dimethylamino)cyclohexyl)amino)pyrimidin-5-yl)vinyl)-3-methoxyphenyl)pyridine-3-sulfonamide], which EC50 is on record?
The EC50 was ≤ 5 nM.

`COc1c(/C=C/c2cnc(NC3CCC(N(C)C)CC3)nc2)ccc(NS(=O)(=O)c2ccccc2Cl)c1F` (centres unmarked) [Compound 66, 2-chloro-N-(4-((E)-2-(2-(((1r,4r)-4-(dimethylamino)cyclohexyl)amino)pyrimidin-5-yl)vinyl)-2-fluoro-3-methoxyphenyl)benzenesulfonamide] was tested. Which EC50 did it give?
Its EC50 is ≤ 5 nM.

Which EC50 does the source give for `COc1cc(NS(=O)(=O)c2ccccc2Cl)c(F)cc1/C=C/c1cnc(NC2CCC(N(C)C)CC2)nc1` (centres unmarked) [Compound 67, 2-chloro-N-(4-((E)-2-(2-(((1r,4r)-4-(dimethylamino)cyclohexyl)amino)pyrimidin-5-yl)vinyl)-2-fluoro-5-methoxyphenyl)benzenesulfonamide] here?
The EC50 was ≤ 5 nM.

With `CN(C)C1CCC(Nc2ncc(/C=C/c3ccc(NS(=O)(=O)c4cccc(F)c4Cl)nc3)cn2)CC1` (centres unmarked) [Compound 68, 2-chloro-N-(5-((E)-2-(2-(((1r,4r)-4-(dimethylamino)cyclohexyl)amino)pyrimidin-5-yl)vinyl)pyridin-2-yl)-3-fluorobenzenesulfonamide] as the molecule, how does the EC50 read?
Its EC50 is ≤ 5 nM.

— patent publication US11945784B2, “IRE1 small molecule inhibitors” (Cornell University, priority 2018, dated 2024)
